From patent publication US11008332B2, “Pharmaceutical composition for preventing or treating aging-related diseases containing decursin derivative as active ingredient” (PRG S&TECH INC., priority 2017, dated 2021)

What was measured:
Plasma protein = Plasma protein binding, human; assay type: in vitro ADME
Description: In vitro ADME studies (plasma protein binding, CYP inhibition, microsomal stability, plasma stability and hERG inhibition) were performed by New drug development center though standard protocols.

[1] = test system: Lmna^G609G/G609G, progeria model mouse; assay: Life span, body weight and morphology of Lmna^G609G/G609G progeria model mice; assay type: in vivo
Description: The experiments were performed in the Association for Assessment and Accreditation of Laboratory Animal Care certified facility, in compliance with animal policies approved by Pusan National University.
Lmna^G609G/609G mice were generated as timed mating of heterozygous Lmna^+/G609G provided by Carlos López-Otin (Universidad de Oviedo, Asturias, Oviedo, Spain).
SLC-D011, mixed with DMOS and PBS, were intraperitoneally injected in mice (20 mg/kg twice per week from 5-week-old). In addition, SLC-D011 dissolved at a concentration of 10 mg/ml in monoolein-based solution was orally administrated to mice in 5 times a week and control mice were treated in the same conditions by administering monoolein-based solution alone.
Lmna^G609G/609G mice were treated with clear chemical solution throughout life span, starting from 5 weeks of age. Lmna^+/G609G were treated via intraperitoneal, starting from 32 weeks of age.

[2] = Lmna^G609G/G609G mice, 20 mg/kg i.p injection twice per week from 5 week age, FIG. 2C
[3] = Lmna^G609G/G609G mice, oral gavage 50 mg/kg daily in monoolein solution from 5 weeks old, FIG. 3C

Q: Which results are given for `CC1(C)Oc2cc3oc(=O)ccc3cc2C[C@@H]1OC/C=C/c1ccccc1` [SLC-D011, (7S)-(+)-8,8-dimethyl-7-(3-phenyl-allyloxy)-7,8-dihydro-6H-pyrano[3,2-g]chromen-2-one]?
A: Plasma protein binding Human (% Bound) (Plasma protein): 99.9 % Bound; life-span extended to ([1]; Lamn^G609G/G609G mice, i.p injection): 20 weeks; body size and gross morphology ([1]; Lamn^G609G/G609G mice, i.p injection, FIG. 2D): body size increase and gross morphology were also improved; lifespan extension ([1]; Lamn^G609G/G609G mice, oral administration in olein-based solution): 4.5 weeks; average (ave) life span [1, 2]: 19.5 weeks; maximum (max) life span [1, 2]: 21 weeks; body weight increase compared to vehicle group ([1]; Lmna^G609G/G609G mice, oral administration, FIG. 3D): about 35%; body size at 8 weeks old ([1]; Lmna^G609G/G609G mice, oral administration, FIG. 3E): apparently larger than that of vehicle-mouse; average life span [1, 3]: 19.3 weeks; maximum life span [1, 3]: 19.5 weeks
